Results reported in US12077503B2, “Substituted cyclic amides and their use as herbicides” (FMC CORPORATION, priority 2015, dated 2024).
Where two headings read alike, the source gives them in different places.

Key:
Type in all cases: in vivo
[1] = tested on: giant foxtail (Setaria faberii); assay: Test A preemergence; conditions: Setaria faberi, pre-emergence, 240 h; for pest or weed control at 125 g/ha: 125 g ai/ha; for pest or weed control at 500 g/ha: 500 g ai/ha
In short: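 Compounds were formulated in a non-phytotoxic solvent mixture with surfactant and applied as a preemergence directed soil spray after seeding, or sprayed postemergence over plants 2 to 10 cm tall at the one- to two-leaf stage. Evaluation after about 10 d compared treated with untreated controls, using a scale from 0 (no effect) to 100 (complete control).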

[2] = tested on: barnyardgrass (Echinochloa crus-galli); assay: Test B flooded paddy test; conditions: Echinochloa crus-galli, 250 g ai/ha, Flood, read-out: Barnyardgrass plant response rating
In short: (§1)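 Evaluation by eye, against controls, occurred 13–15 d post-treatment in a greenhouse, using a 0 (no effect) to 100 (complete control) scale. Application was into the paddy water, 3 cm deep over the soil, on 2-leaf plants.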

rice (Oryra sativa) = assay: Test B flooded paddy test; conditions: Oryza sativa, 250 g ai/ha, Flood, read-out: Rice plant response rating
In short: as §1

[3] = tested on: sedge, umbrella (small-flower umbrella sedge, Cyperus difformis); assay: Test B flooded paddy test; conditions: Cyperus difformis, 250 g ai/ha, Flood, read-out: Sedge, Umbrella plant response rating
In short: as §1

[4] = tested on: ducksalad (Heteranthera limosa); assay: Test B flooded paddy test; conditions: Heteranthera limosa, 250 g ai/ha, Flood, read-out: Ducksalad plant response rating
In short: as §1

[5] = Preemergence, visual injury rating after approximately 10 d, read-out: Foxtail, Giant plant response rating (0 to 100 scale, 0 is no effect, 100 is complete control)
[6] = preemergence, visual injury rating about 10 d after treatment, 0 to 100 scale (0 no effect, 100 complete control), read-out: Foxtail, Giant plant response rating
[7] = 0 to 100 scale where 0 is no effect and 100 is complete control
[8] = scale of 0 to 100 where 0 is no effect and 100 is complete control
[9] = preemergence, 0 to 100 scale where 0 is no effect and 100 is complete control, approx. 10 d, read-out: Foxtail, Giant plant response rating
[10] = preemergence, 0 to 100 scale where 0 is no effect and 100 is complete control, read-out: Foxtail, Giant plant response rating
[11] = Preemergence, visual injury vs untreated controls after approximately 10 d, read-out: Foxtail, Giant plant response rating (0 to 100 scale where 0 is no effect and 100 is complete control)

| SMILES | pest or weed control at 125 g/ha [1, 5] [%] | pest or weed control at 500 g/ha [1, 6] [%] | pest or weed control at 250 g/ha [2, 7] [%] | pest or weed control at 250 g/ha (rice (Oryra sativa); [7]) [%] | pest or weed control at 250 g/ha [3, 7] [%] | pest or weed control at 250 g/ha [4, 7] [%] | pest or weed control at 250 g/ha [2, 8] [%] | pest or weed control at 250 g/ha (rice (Oryra sativa); [8]) [%] | pest or weed control at 250 g/ha [4, 8] [%] | pest or weed control at 125 g/ha [1, 9] [%] | pest or weed control at 500 g/ha [1, 10] [%] | pest or weed control at 250 g/ha [3, 8] [%] | pest or weed control at 125 g/ha [1, 10] [%] | pest or weed control at 500 g/ha [1, 11] [%] |
| --- | --- | --- | --- | --- | --- | --- | --- | --- | --- | --- | --- | --- | --- | --- |
| CN1CC[C@H](c2ccccc2)[C@@H](C(=O)Nc2ccccc2F)C1=O [Compound 1032] | 0 | 70 | 0 | 0 | 0 | 20 |  |  |  |  |  |  |  |  |
| COc1ccc([C@H]2CN(C)C(=O)[C@@H]2C(=O)Nc2ccccc2SC)cc1C(F)(F)F [Compound 991] | 90 | 90 |  |  | 0 |  | 0 | 15 | 40 |  |  |  |  |  |
| CN1C[C@H](c2ccc(F)c(F)c2)[C@@H](C(=S)Nc2ccccc2F)C1=O (racemic) [Compound 1153] |  |  | 30 | 0 | 0 | 70 |  |  |  | 90 | 90 |  |  |  |
| CC(C)COc1cccc([C@H]2CNC(=O)[C@@H]2C(=O)Nc2ccc(F)cc2F)c1 [Compound 966] | 80 | 90 |  |  |  |  | 0 | 0 | 60 |  |  | 0 |  |  |
| CN1CC[C@H](c2cccc(Cl)c2)[C@@H](C(=O)Nc2cccc(Cl)c2F)C1=O [Compound 924] |  |  |  |  |  |  | 50 | 0 | 70 |  |  | 0 | 90 | 90 |
| Cc1c(F)cccc1NC(=O)[C@H]1C(=O)NC[C@@H]1c1cc(F)c(F)c(F)c1 [Compound 1125] |  |  | 70 | 0 | 0 | 100 |  |  |  | 90 | 100 |  |  |  |
| CN1C[C@H](c2cccc(F)c2)[C@@H](C(=O)Nc2ccccc2S(C)(=O)=O)C1=O [Compound 824] |  |  |  |  |  |  | 65 | 0 | 95 |  |  | 0 | 90 | 100 |
| CCOc1ccc([C@H]2CN(C)C(=O)[C@@H]2C(=O)Nc2cccc(F)c2F)cc1 [Compound 904] |  |  |  |  |  |  | 0 | 0 | 0 |  |  | 0 | 90 | 90 |
| CN1C[C@H](c2ccc(C(F)(F)F)cc2)[C@](F)(C(=O)Nc2cccc(F)c2F)C1=O (racemic) [Compound 1152] |  |  | 0 | 0 | 0 | 0 |  |  |  | 70 | 90 |  |  |  |
| O=C1NC[C@H](c2cc(F)c(C(F)(F)F)c(F)c2)[C@H]1C(=O)Nc1ccccc1F [Compound 837] |  |  |  |  |  |  | 0 | 0 | 70 |  |  | 0 | 90 | 90 |
| COc1c(F)ccc([C@H]2CN(C)C(=O)[C@@H]2C(=O)Nc2ccccc2S(C)(=O)=O)c1Cl [Compound 897] |  |  |  |  |  |  | 45 | 0 | 45 |  |  | 0 | 90 | 100 |
| CC(C)Oc1ccc([C@H]2CN(C)C(=O)[C@@H]2C(=O)Nc2ccc(F)cc2F)cc1 [Compound 954] | 90 | 90 |  |  |  |  | 0 | 0 | 35 |  |  | 0 |  |  |
| Cc1cc([C@H]2CN(C)C(=O)[C@@H]2C(=O)Nc2ccc(F)cc2F)ccc1Br [Compound 1100] |  | 90 | 0 | 0 | 0 | 75 |  |  |  | 90 |  |  |  |  |
| Cc1cc([C@H]2CNC(=O)[C@@H]2C(=O)Nc2ccccc2F)ccc1C(F)(F)F [Compound 1042] | 90 | 90 | 30 | 0 | 0 | 75 |  |  |  |  |  |  |  |  |
| CN1C[C@H](c2ccc3c(c2)OCO3)[C@@H](C(=O)Nc2cccc(F)c2F)C1=O [Compound 1126] |  |  | 75 | 0 | 0 | 100 |  |  |  | 90 | 90 |  |  |  |
| Cc1c(F)ccc([C@H]2CN(C)C(=O)[C@@H]2C(=O)Nc2ccc(F)cc2F)c1F [Compound 835] |  |  |  |  |  |  | 50 | 20 | 70 |  |  | 0 | 90 | 100 |
| CN1C[C@H](c2cccc(C3CC3)c2)[C@@H](C(=O)Nc2cccc(F)c2F)C1=O [Compound 816] |  |  |  |  |  |  | 55 | 30 | 75 |  |  | 0 | 90 | 90 |
| Cc1ccc([C@H]2CN(C)C(=O)[C@@H]2C(=O)Nc2cccc(F)c2F)cc1Cl [Compound 1013] | 90 | 90 | 55 | 70 | 100 | 100 |  |  |  |  |  |  |  |  |
| COc1c(F)ccc([C@H]2CN(C)C(=O)[C@@H]2C(=O)Nc2ccc(F)c(F)c2F)c1Cl [Compound 895] |  |  |  |  |  |  | 75 | 0 | 85 |  |  | 0 | 90 | 90 |
| CN1C[C@H](c2cscn2)[C@@H](C(=O)Nc2ccccc2F)C1=O [Compound 1112] |  |  | 0 | 15 | 40 | 0 |  |  |  | 0 | 0 |  |  |  |
| Cc1cc([C@H]2CN(C)C(=O)[C@@H]2C(=O)Nc2ccccc2S(C)(=O)=O)ccc1Br [Compound 1102] |  |  | 60 | 0 | 0 | 85 |  |  |  | 90 | 90 |  |  |  |
| CSc1ccccc1NC(=O)[C@H]1C(=O)NC[C@@H]1c1cc(F)cc(Cl)c1 [Compound 977] | 90 | 90 |  |  |  |  | 15 | 15 | 100 |  |  | 0 |  |  |
| O=C1NC[C@H](c2ccc3c(c2)OCO3)[C@H]1C(=O)Nc1cccc(F)c1C(F)(F)F [Compound 1127] |  |  | 0 | 0 | 0 | 100 |  |  |  | 0 | 70 |  |  |  |
| CN1C[C@H](c2cccc(COC(F)F)c2)[C@@H](C(=O)Nc2cccc(F)c2F)C1=O [Compound 873] |  |  |  |  |  |  | 85 | 0 | 100 |  |  | 50 | 90 | 100 |
